Reference: patent US5300491A, “Treatment of protozoal infection” (priority 1992, dated 1994)
Several values for one entry are separate records, joined by “and”; a condition that tells them apart may be missing. Equal values may be shown once. Read-outs that look alike come from different tables or passages of the source. Bridge positions count the residues as written; N and C are the ends. Square brackets hold non-standard residues; d marks the D form. Peptide text beside a SMILES is read from it. * marks the point of attachment. Ileψ(thiazoline)Cys = CC[C@H](C)[C@H](N)C1=N[C@H](C(=O)*)CS1; dOrn = NCCC[C@@H](N)C(=O)O

Experiments:
[1] = system: spleen cells of rats; settings: rat, in vivo; cited from earlier work
[2] = system: Cryptosporidium parvum; assay type: in vivo, Human
Text: The patient was a child, weighing approximately 30 kg. For years, the patient had suffered from moderate diarrhea. Prior to being treated with zinc bacitracin, the patient's stool repeatedly tested positive for intestinal Cryptosporidia. […] The patient received sulfonamide and cefalexin for the influenza during the hiatus. The zinc bacitracin treatment resumed approximately one month later and continued for two weeks thereafter.
After the treatment period, it was observed that the drug was well-tolerated by the patient.

[3] = system: Trichomonas vaginalis; test: Trichomonas vaginalis assay of other divalent metal salts of bacitracin (MIC); assay type: cell-based
Protocol: All isolates were treated with either bacitracin or zinc bacitracin.
Prior to being diluted with the medium, the bacitracins were initially solubilized in water to 250 mg/ml. The zinc salt was solubilized in acidified water (60 μl HC1/ml). Duplicate plates of each isolate were prepared. one set of plates was exposed to an aerobic environment; and, the second set was exposed to an anaerobic environment. An Oxoid HP 11 anaerobic gas chamber and BR 38 gas generating kit were used to produce the anaerobic environment.
The procedure of Example IV was repeated, substituting bacitracin salts of the following metals for zinc bacitracin: nickel, cadmium, cobalt, manganese, copper and iron. The MLCs of the bacitracin salts were out of range. However, the MICs indicate that, with the exception of ferrous bacitracin, complexation with a divalent metal salt enhanced the activity of bacitracin.

[4] = system: Tritrichomonas gallinae; test: Tritrichomonas gallinae assay (MLC); assay type: cell-based; settings: isolate GH85
Protocol: A single T. gallinae isolate was collected and treated with bacitracin or zinc bacitracin in accordance with the procedure of Example IV. Duplicate plates of the isolate were prepared. one plate was exposed to an aerobic environment. The second plate was exposed to an anaerobic environment.

[5] = system: human peripheral lymphocytes; settings: cited from earlier work
[6] = system: mouse lymphoma cell; settings: cited from earlier work
[7] = system: E. histolytica; test: Amoebiasis clinical study; assay type: in vivo, Human
Protocol: Cysts and trophozoites of E. histolytica were detected initially by wet preparation screening of faeces, and later confirmed by the formal-ether technique. Full parasitological cure was based upon the presentation of 1-2 negative stool samples within one week post treatment.
In a dose-effect segment of the study, two groups of symptomatic E. histolytica cyst or trophozoite passers attending an outpatient clinic for abdominal pains were treated for either ten or five days.
In a dose-duration study, three groups of patients were observed: Group 1 - symptomatic cyst and trophozoite passers; Group 2 - dysenteric patients with bloody diarrheas; and, Group 3 - asymptomatic cyst passers.

[8] = cited from earlier work
[9] = system: Giardia lamblia; assay type: cell-based
Protocol: A Portland isolate of G. lamblia was treated with bacitracin and zinc bacitracin according to the procedure of Example IV. An Oxoid HP 11 anaerobic gas chamber and BR 38 gas generating kit were used to produce an anaerobic environment. […] The parasites were incubated in the presence of the treating reagent for 2 4 hours. The viability of the parasites was based on morphology and motility.

[10] = system: histidine auxotrophs of Salmonella typhimurium; settings: absence and presence of a rat liver activating system; cited from earlier work
[11] = system: G. lamblia; test: G. lamblia clinical study; assay type: in vivo, Human; settings: for patients responding: 200,000 IU daily as tablets for ten days
Text: Based upon this dosage, 6 of the ten metronida-zole-resistant patients in Sweden responded to this regime. In addition, all of the 11 non-selected patients in Romania responded to this regime. Eight of these 11 non-selected patients remained clear of infection for the length of the study.

[12] = system: intestinal amoebic infections; settings: cited from earlier work
[13] = span depending upon culture conditions
[14] = span depending upon culture conditions, converted from IU/ml
[15] = Group 1, 9 patients treated for two days
[16] = Group 1, 12 patients treated for 3 days
[17] = Table 5 dose-effect study, symptomatic cyst & trophozoite passers, 100,000 I.U. daily for 5 days, 5 patients
[18] = Table 5 dose-effect study, symptomatic cyst & trophozoite passers, 100,000 I.U. daily for 10 days, 9 patients
[19] = Table 6 dose-duration study, Group 1 symptomatic cyst and trophozoite passers, 1 day, 2 patients
[20] = Table 6 dose-duration study, Group 1 symptomatic cyst and trophozoite passers, 2 days, 9 patients
[21] = Table 6 dose-duration study, Group 1 symptomatic cyst and trophozoite passers, 3 days, 12 patients
[22] = Table 6 dose-duration study, Group 1 symptomatic cyst and trophozoite passers, 5 days, 5 patients
[23] = Table 7 dose-duration study, Group 2 dysentery cases, 3 days, 5 patients
[24] = Table 8 dose-duration study, Group 3 asymptomatic cyst passers, 3 days, 9 patients
[25] = Table 8 dose-duration study, Group 3 asymptomatic cyst passers, 5 days, 9 patients
[26] = Portland isolate, anaerobic, 24 hours, two lines of values
[27] = 11 non-selected patients in Romania

**Q.** What does the source list for Zinc bacitracin?
**A.** nucleoid sedimentation velocity [1]: Only a small reduction in nucleoid sedimentation velocity; stool parasites over the course of the treatment period ([2]; child, 30,000 units thrice daily, 8 days and later two weeks): No stool parasites were detected; tolerability ([2]; human, in vivo): well-tolerated; stool test after end of treatment ([2]; one week after the final discontinuation of treatment): began to once again test positive for intestinal cryptosporidia; MIC ([3]; T. vaginalis isolate 1910): 2.50 to 5.00 mg/mL; MIC ([3]; T. vaginalis isolate UCH1): 2.50 mg/mL; MLC ([4]; aerobic): 250 IU/ml; MLC ([4]; anaerobic): 300 IU/ml; MLC [4, 13]: 250-300 IU/ml; MLC [4, 14]: 3.91 to 4.87 mg/mL; damage to chromosomal structure [5]: did not induce any damage to the chromosomal structure; mutation frequency at the TK gene locus [6]: no significant increase in the mutation frequency; cure ([7]; 100,000 I.U. daily for 3-5 days): 100%; cure rate [7, 15]: 55%; relapse rate [7, 15]: 60%; patients relapsed (at days 6 and 10) [7, 16]: 16%; primary cure rate [7, 16]: 100%; treatment outcome ([7]; Group 1, two patients treated for 1 day): without success; subjects showing parasites in their stools again after two weeks ([7]; Group 3 asymptomatic cyst passers, five-day regimen, 9 subjects): 44%; Number Relapsing [7, 17]: 0; Number Responding [7, 17]: 5; Number Relapsing [7, 18]: 0; Number Responding [7, 18]: 9; Number Relapsing [7, 19]: 1; Number Responding [7, 19]: 1; Number Relapsing [7, 20]: 3; Number Responding [7, 20]: 5; Number Relapsing [7, 21]: 2; Number Responding [7, 21]: 12; Number Relapsing [7, 22]: 1; Number Responding [7, 22]: 5; Number Relapsing [7, 23]: 1; Number Responding [7, 23]: 5; Number Relapsing [7, 24]: 2; Number Responding [7, 24]: 8; Number Relapsing [7, 25]: 4; Number Responding [7, 25]: 9; side effects ([7]; all patients of the amoebiasis clinical study, 100,000 I.U. daily): No side effects were reported; cure rate ([7]; dose-effect study, 9 patients treated for 10 days): 100%; absorption from the gut ([8]; rat, in vivo, po): not absorbed from the gut; levels in the livers ([8]; rat, in vivo, po): No detectable levels; oral toxicity ([8]; rats, sub-chronic and chronic, feed levels up to 1,000 ppm): non-toxic; MLC (second of the two columns per drug) [9, 26]: > 400 IU/ml and 300 IU/ml; MICs ([9]; Portland isolate, converted from IU/ml): 2.3 to 6.3 mg/mL; mutagenic potential [10]: devoid of mutagenic potential; patients remaining clear of infection for the length of the study [11, 27]: Eight; patients responding [11, 27]: 11; patients responding ([11]; ten metronidazole-resistant patients in Sweden): 6

**Q.** For CC[C@H](C)[C@H](N)C1=N[C@H](C(=O)N[C@@H](CC(C)C)C(=O)N[C@H](CCC(=O)O)C(=O)N[C@H](C(=O)N[C@H]2CCCCNC(=O)[C@H](CC(N)=O)NC(=O)[C@@H](CC(=O)O)NC(=O)[C@H](Cc3cnc[nH]3)NC(=O)[C@@H](Cc3ccccc3)NC(=O)[C@H]([C@@H](C)CC)NC(=O)[C@@H](CCCN)NC2=O)[C@@H](C)CC)CS1 [Bacitracin, reference compound] ({Ileψ(thiazoline)Cys}-L[dE]IK[dOrn]I[dF]H[dD]N; lactam 4-C), which MIC ([3]; T. vaginalis isolate 1910) is on record?
**A.** 10.00 mg/mL

**Q.** And the MIC ([3]; T. vaginalis isolate UCH1)?
**A.** 10.00 mg/mL

**Q.** And the MLC ([4]; aerobic)?
**A.** 2000 IU/ml

**Q.** What about the MLC ([4]; anaerobic) of the same molecule?
**A.** 1500 IU/ml

**Q.** What about the MLC [4, 13] of the same molecule?
**A.** 1,500-2,000 IU/ml

**Q.** What about the MLC [4, 14] of the same molecule?
**A.** 21.43 to 28.57 mg/mL

**Q.** What about the parasitological cure ([12]; 51 patients, 10-20 days, 40,000 to 160,000 units) of the same molecule?
**A.** 66%

**Q.** What about the cure rate ([12]; 100,000 I.U. daily over ten days) of the same molecule?
**A.** < 100%

**Q.** What about the MICs [9] of the same molecule?
**A.** 28.6 to 35.7 mg/mL

**Q.** And the “MLC (first of the two columns per drug)” value [9, 26]?
**A.** 2500 IU/ml and 2000 IU/ml

**Q.** And the “MLC (second of the two columns per drug)” value [9, 26]?
**A.** > 3500 IU/ml
